According to ChEMBL document CHEMBL2016486, “Synthesis of [Tyr-5-Ψ(CH2NMe)-Tyr-6]RA-VII, a reduced peptide bond analogue of RA-VII, an antitumor bicyclic hexapeptide” (Bioorg Med Chem Lett, 2012):
In brackets after ≈: the same amount, converted by molar mass.

Tested on: P388
Assay: Cytotoxicity against mouse P388 cells
Assay type: functional, cell-based

Row | Structure (SMILES) | IC50 [µg/mL]
1 | COc1ccc(C[C@H]2C(=O)N[C@@H](C)C(=O)N(C)[C@H]3Cc4ccc(cc4)Oc4cc(ccc4OC)C[C@@H](C(=O)N[C@H](C)C(=O)N[C@@H](C)C(=O)N2C)N(C)C3=O)cc1 | 0.0043 (≈ 0.00558 µM)
2 | COc1ccc(C[C@H]2C(=O)N[C@@H](C)C(=O)N(C)[C@H]3Cc4ccc(cc4)Oc4cc(ccc4OC)C[C@@H](C(=O)N[C@H](C)C(=O)N[C@@H](C)C(=O)N2C)N(C)C3)cc1 | 5 (≈ 6.61 µM)
